Literature values, collected in US20120211706A1, “POLYDENTATE LIGAND METAL COMPLEX” (SUMITOMO CHEMICAL COMPANY, LIMITED, priority 2009, published 2012).
Structures can show the parent of a compound that is named as a salt.

Conditions: 1N aqueous sulfuric acid solution

emission quantum yield of standard sample: 55%
SMILES: C=C[C@H]1C[N@@]2CC[C@H]1C[C@H]2[C@H](O)c1ccnc2ccc(OC)cc12 [quinine sulfate]
